Patent US10711002B2, “Purine compounds and method for the treatment of cancer” (THE ROYAL INSTITUTION FOR THE ADVANCEMENT OF …, priority 2016, dated 2020)

Tests used:
[1] = system: PMC42-LA cells; assay: Organoid differentiation on matrigel; assay type: cell-based
Method: (§1) Cancer cell lines: MDA-MB-231, BT-20, Panc-1, OVCAR-3, 4T1 and RENCA were obtained from ATCC. Epithelial breast adenocarcinoma cell line PMC42-LA, were kindly provided by Dr. Ackland. Mia-Paca cells were kindly provided by Dr. George Zogopoulos. All cancer cell lines were cultured in RPMI1640× with 10% fetal bovine serum with 1% penicillin/streptomycin, and maintained at 37° C. in 5% atmosphere of CO2. In the case of growth factor stimulation, cells were serum starved for no longer than 12H, and then stimulated with 20 ng/ml EGF for 40 minutes.
In order to confirm that the reduction of CSC markers by Compound 1 correlates with loss of stem-cell properties, the effect of Compound 1 was investigated on the differentiation capability of a well-established PMC42-LA breast cell line. PMC42-LA cells treated with the appropriate concentrations of Compound 1 were also plated on Compound 1 containing matrigel and allowed to form organoids. Since the defining characteristic of stem cells is pluripotency—the capacity of a cell to differentiate into varying progenies, then Compound 1 may inhibit the differentiation process in those PMC42-LA cells. In the absence of drug treatment, PMC42-LA cells undergo differentiation into secretory organoids when cultured on matrigel.

[2] = system: cell mobility; assay: Live cell locomotion assay; assay type: cell-based; details: moderate doses; 10 ng/mL EGF stimulation
Method: Cells were seeded at very low density on multi-well chambered coverglass (LabTek, Rochester, N.Y., USA). After starving, cells were stimulated with 10 ng/mL EGF and plated on a heated humidified stage supplied with 5% CO2. Phase contrast time-lapse images were captured every five minutes for three hours by optimized Nipkow spinning disk confocal microscope (WaveFx spinning disk, Quorum Technologies Inc, Guelph, ON, Canada). Cell motility was measured by tracing the cell periphery manually using Volocity software (Perkin Elmer, Waltham, Mass., USA).
To further confirm Compound 1's anti-metastatic potential, we conducted a live cell locomotion assay to quantify cell movement speed.

[3] = system: cell cycle; assay: Cell cycle analysis (FACS, propidium iodide staining); assay type: cell-based
Method: Cell cycles were synchronized prior to treatment through overnight serum deprivation. After treatment, cells were fixed and permeabilized using BD Cytofix/Cytoperm reagent (BD Bioscience), washed with PBS, and treated with 100 μg/ml Bovine Pancreas RNase A (US Biological). Cells were then stained with 25 μg/ml propidium iodide (Sigma) for 15 minutes and then immediately analyzed by flow cytometry using BD FACScalibur. The data was analyzed using FCS Express software.
It was observed during Compound 1 treatment that the targeting effect against stem-like cells is visibly associated with morphological changes resembling cell polyploidization, the accumulation of multiple DNA copies in a cell. This biological phenomenon sometimes occur as part of cell differentiation and is often associated with disruption of normal cell cycle. The identification of Aurora kinases (described below) as targets of Compound 1 supports the possible impact on cell division. Therefore the effect of Compound 1 on cell cycle using FACS analysis to measure propidium iodide staining was investigated.

[4] = Pilot toxicity study; assay type: in vivo, mice; details: doses even superior to 30 mg/kg, PO, 3 times a week, 4 cycles
From the text: (§2) In vivo studies were approved by McGill Animal Care Committee. Cells growing in exponential phase of growth (1×10^6 cells/mouse) were transplanted into the mammary fat pad of female SCID (MDA231/M) or Balb/c (4T1) mice. Mia-PaCa cells and RENCA cells were implanted subcutaneously in SCID or Balb/c mice respectively. When primary tumors became palpable mice were randomized and blindly assigned treatment groups. Treatment was given PO for 4 cycles (3 times a week: day 1, day 3, day 5) (n=8-10 mice per condition). Control mice received the vehicle alone (1% DMSO in physiologic solution). […] Tumor size was measured using a caliper. At the study termination (60-90 days) primary tumors were excised and weighted. The lungs were fixed in 10% Bouin's fixative and lung surface metastases were counted using a stereomicroscope.

[5] = system: 4T1/M (triple-negative breast cancer); assay: In vivo distant metastasis and primary tumor growth, orthotopic transplant; details: 4T1/M in Balb/c mice, PO
From the text: as §2

[6] = system: MDA-231/M (human triple-negative breast cancer); assay: as above; details: MDA-231/M in SCID mice, PO
From the text: as §2

[7] = system: RENCA (renal adenocarcinoma); assay: In vivo primary tumor growth, subcutaneous implant; set-up: species or system Balb/c mice
From the text: as §2

[8] = system: breast cancer metastasis to the lung; assay: In vivo invasive breast cancer models, metastasis to the lung; details: 30 mg/kg and below given bi-weekly for 3 weeks
From the text: These kinases are directly involved in pathways controlling cell differentiation programs, metastasis signaling, as well as EMT and CSC programming and their overexpression was reported to predict decreased metastasis-free survival.
as §2, with “Treatment was given PO for 4 cycles (3 times a week: day 1, day 3, day 5) (n=8-10 mice per condition).” left out

[9] = system: Panc-1 cells; assay: Clonogenic assay; assay type: cell-based; details: Panc-1, 6 days of incubation
Method: as §1
(§3) Clonogenic assays were also performed using standard techniques as previously described. Briefly, cells were harvested from exponential-phase cultures, counted and plated at densities of 200 cells per well of a 12-well plate. Twenty-four hours after plating, the compounds were delivered once at the mentioned concentration. Negative control was carried out by treating the cells with DMSO. After 6 days of incubation in the presence of the compounds, the cells were stained with 0.5% crystal violet in absolute ethanol, and colonies were counted using the machine GelCount™ Tumor Colony Counter from Oxford Optronix Ltd. Each experiment was done in triplicates.

[10] = system: OVCAR-3 cells; assay: Clonogenic assay; assay type: cell-based; details: OVCAR-3, 6 days of incubation
Method: as §1, §3

[11] = system: BT20 cells; assay: Clonogenic assay; assay type: cell-based; details: BT20, 6 days of incubation
Method: as §1, §3

Row | SMILES | differentiation and expansion of colonies into larger organoid structures [1] | number of overall colonies [1] | limitation of the rate of cell mobility [2] | accumulation of polyploidic cells [3] | body weight loss [4] | toxicity [4] | Primary tumor weight ([5]; at study termination) | Inhibition of distant metastasis (% control) ([5]; lung surface metastases) | Primary tumor weight ([6]; at study termination) | Inhibition of distant metastasis (% control) ([6]; lung surface metastases) | Primary tumor weight (% inhibition vs. control) ([7]; RENCA subcutaneous in Balb/c mice, PO) | renal adenocarcinoma cell (RENCA) growth in vivo ([7]; mouse, in vivo) | inhibition of breast cancer metastasis to the lung [8] | colony forming ability [9] | colony forming ability [10] | colony forming ability [11]
1 | O=c1c2ccccc2[se]n1-c1nc(NC2CCCCC2)c2nc[nH]c2n1 [Compound 1] | visibly prevented the differentiation and expansion of these colonies into larger organoid structures | did not reduce the number of overall colonies | 2-3 fold | induces a dose-dependent accumulation of polyploidic cells | – | – | – | – | – | – | – | – | – | – | – | –
2 | O=c1c2ccccc2[se]n1-c1nc(N[C@H]2CC[Se]C2)c2nc[nH]c2n1 [Compound 4] | – | – | – | – | no body weight loss | no apparent toxicity | 0.5 ± 0.10 g | 75-82% | 0.2 ± 0.08 g | 45-61% | (34-55%) | able to inhibit | more than 50% | Significant reduction | Significant reduction | Significant reduction
